The record followed here is patent US6372209B1, “Vaginal lactobacillus medicant” (Gyne Logix, Inc., priority 1997, dated 2002).

Read-outs that look alike come from different tables or passages of the source.

The test system of experiment [1] is Candida albicans ATCC 60193 (cervical isolate). The experiment is described as follows: Agar overlay zone of inhibition of yeast growth. It counts as cell-based. To be noted: Organism Growth Time Period 48 hours. Here is the method:
MRS agar was allowed to harden at a 5 mm slant. Lactobacillus crispatus CTV-05 was streaked across the diameter of the plate and was grown for 24, 48 or 72 hours under both anaerobic and ambient atmospheres. Control strains of Lactobacillus jensenii CTV-01, Lactobacillus crispatus CTV-02, Lactobacillus crispatus CTV-03, and Lactobacillus crispatus CTV-04 were grown in the same way. The plates were overlayed with YM agar with 10 mM CNNaS (sodium thiocyanate, previously reported to be an inhibitor of yeast growth) or without CNNaS. The agar overlays were inoculated with one of two strains of Candida albicans ATCC 60193 (cervical isolate) or Candida albicans ATCC 14053 (human blood isolate). Zones of inhibition were measured. […] Therefore, Lactobacillus crispatus CTV-05 inhibits yeast growth in vitro.

Experiment [2] has as its system women with recurrent bacterial vaginosis. To be noted: for Percentage Women Colonized with H2O2-producing Lactobacilli / Women Colonized with H2O2-producing Lactobacilli, number: n = 15.
Description: In this study, a group of women with recurrent bacterial vaginosis (BV) was treated with 2% Clindamycin cream, once daily for three days, followed by Lactobacillus suppositories containing the Lactobacillus crispatus CTV-05 strain twice daily for three days. A group of women from the same clinic with recurrent bacterial vaginosis treated with Clindamycin cream alone were included for comparison. […] The patients were evaluated for vaginal presence of H2O2-producing Lactobacilli, and the absence of bacterial vaginosis infection.

In the case of “Lactobacillus crispatus CTV-02 [reference compound]”, the “Zone of Inhibition (in millimeters)” value in experiment [1] lay within 3 to 0 mm.

Regarding `CCC[C@@H]1C[C@@H](C(=O)N[C@@H]([C@H]2O[C@H](SC)[C@H](O)[C@@H](O)[C@H]2O)[C@H](C)Cl)N(C)C1` [Clindamycin], the “Percentage Women Colonized with H2O2-producing Lactobacilli” value is 33% in experiment [2] (Enrollment), 40% in experiment [2] (One month post treatment), 7% in experiment [2] (One week post treatment) and 33% in experiment [2] (Three months post treatment). Also, the “Women Colonized with H2O2-producing Lactobacilli, number” value is 5 in experiment [2] (Enrollment), 6 in experiment [2] (One month post treatment), 1 in experiment [2] (One week post treatment) and 5 in experiment [2] (Three months post treatment). Besides, the “Percentage Women Free of Bacterial Vaginosis” value in experiment [2] (One month post treatment) is on record as 53%; in experiment [2] (One week post treatment) it was 87%; in experiment [2] (Three months post treatment), 26%.

Consider “Lactobacillus crispatus CTV-04 [reference compound]”, for which, in experiment [1], the “Zone of Inhibition (in millimeters)” value lay within 5 to 2 mm.

On to “Lactobacillus crispatus CTV-03 [reference compound]”, for which the “Zone of Inhibition (in millimeters)” value in experiment [1] is “slight inhibition”.

With “Lactobacillus jensenii CTV-01 [reference compound]”, the “Zone of Inhibition (in millimeters)” value in experiment [1] fell in the range of 1 to 0 mm.
